Data set [1] can be described thus: Non-compartmental pharmacokinetic analysis of maternal SRI plasma levels. Particulars: for AUC(0-t) / Cmax: female, human, 36-weeks' gestation, daily oral dose; for AUC(0-t) / Cmax / Tpeak: mean ± SE; for AUC(0-t): area under the curve from T0 (baseline) to last measured plasma concentration (T4), SRI-treated women; for Cmax: maximum (peak) maternal plasma drug concentration; for Tpeak: time from baseline (T0) to reach Cmax, oral dose about 1.8 h after T0. The data set is classed as in vivo, human. As to the method: Maternal SRI plasma levels were further characterized by performing a non-compartmental pharmacokinetic analysis, yielding estimates of maximum plasma drug concentration (Cmax), time-to-peak (Tpeak) and area under the curve (AUClast). Pharmacokinetic variables were calculated using the PKNCA R package ([73]).

On the set-up of data set [2]: method as in PMID 26765210. Particulars: rodents; 2-h after maternal drug administration; ref [83]; cited from earlier work.
A short description of data set [3]: Maternal plasma drug concentrations by HPLC tandem mass spectrometry at 36-weeks' gestation. Particulars: for Δ T3-T0, change in dose-adjusted plasma concentration: mean ± SE, from baseline (T0) to post-dose 3 (T3); for Pharmacokinetic phase at the post-dose fetal assessment: reached Cmax. An excerpt:
To investigate chronic and acute SRI effects on the fetus, SRI-treated women were asked to withhold their typical morning oral dose until ~10h00, resulting in the AM/baseline and PM fetal assessments corresponding to pre-dose and post-dose periods, respectively. To characterize concurrent SRI pharmacokinetics across the study protocol, plasma drug concentrations were quantified at baseline (pre-dose) and four time-points post-dose; details on the drug level assay and pharmacologic variables are described below. Timing for each component of this study considered the need for a sufficient antidepressant baseline (pharmacologic trough), half-life, and time-to-peak plasma levels, weighted against length of study in effort to minimize maternal discomfort/inconvenience and potential effects of diurnal variations in the fetal variables obtained.
Changes in maternal plasma drug concentration between fetal assessments were determined by analyzing blood samples from SRI-treated mothers pre-dose (T0, baseline levels; ~08h00) and at four time-points post-dose: T1 (~10h30), T2 (~12h30), T3 (~13h30), and T4 (~14h30). Serum was separated by centrifugation at 3,000 × g for 10 min, transferred to polypropylene tubes and stored at −70°C until analysis. High performance liquid chromatography tandem mass spectrometry, performed offsite (CANTEST Ltd.; Burnaby, Canada), was used to determine levels of fluoxetine, norfluoxetine, paroxetine, sertraline, citalopram, escitalopram and venlafaxine.
Plasma drug concentrations were adjusted for maternal oral dose (ng/ml·mg). To quantify the relative change in maternal SRI level between the pre- and post-dose fetal assessments, the difference in dose-adjusted plasma drug concentration between T0 and T3 was determined. Plasma concentrations for metabolites were not reported as they reflect parent drugs.

For data set [4] the following is noted: known value the observation is said to be consistent with; no reference given; cited from earlier work.
A further data set has as its system fetal HR. As to conditions: acute exposure; ref [49]; cited from earlier work.

The source of these data is PMC8415315, “Maternal Serotonin Reuptake Inhibitor Antidepressants Have Acute Effects on Fetal Heart Rate Variability in Late Gestation” (Frontiers in Psychiatry, 2021).

As a reminder, the AUC(0-t) is exposure summed from dosing to a finite time, without extrapolation to infinity. A high value points to more exposure. In general, Cmax refers to the maximum level reached in the sampled fluid or tissue.

Like-named read-outs stand apart in the source and are kept apart here.

Consider `CN(C)CCCC1(c2ccc(F)cc2)OCc2cc(C#N)ccc21` (stereo not shown) [Citalopram], for which, in data set [1], the AUC(0-t) came to 906 ± 271 ng·h/mL, the peak level (Cmax) was 274 ± 92 ng/mL and the Tpeak stood at 4.9 ± 0.14 h. Moreover, in data set [2], the “Fetal citalopram exposure relative to the mother” value is given as “exceed that of the mother”. For the same compound, in data set [3], the “Δ T3-T0, change in dose-adjusted plasma concentration” value (“Δ T3-T0, change” for short) came to 3.2 ± 1.0 ng/ml·mg and the “Pharmacokinetic phase at the post-dose fetal assessment” value is given as “early elimination phase”.
For `CNCCC(Oc1ccc(C(F)(F)F)cc1)c1ccccc1` (stereo not shown) [Fluoxetine], in data set [1], the “AUClast, total observed maternal drug exposure during study protocol (rank among antidepressants)” value is “highest”; the area under the curve AUC(0-t) was determined as 3220 ± 1920 ng·h/mL; the maximum concentration (Cmax) stood at 613 ± 342 ng/mL; the Tpeak worked out at 5.8 ± 1.0 h. Moreover, the Tpeak in data set [4] was 6 to 8 h. In data set [3], the “Pharmacokinetic phase by the last blood collection (T4)” value (from here on “Pharmacokinetic phase … (T4)”) is “absorption phase” and the “Δ T3-T0, change” value worked out at 4.3 ± 2.5 ng/ml·mg. The “Pharmacokinetic phase … (T4)” value in data set [3] (listed as fluoxetine) is “still in the absorption phase”.
As to `Fc1ccc([C@@H]2CCNC[C@H]2COc2ccc3c(c2)OCO3)cc1` [Paroxetine], in data set [1], the “AUClast, total observed maternal drug exposure during study protocol (rank among antidepressants)” value was “lowest”; the area under the curve AUC(0-t) turned out to be 125 ± 66 ng·h/mL; the peak concentration (Cmax) came out at 24 ± 5.2 ng/mL; the Tpeak is 4.6 ± 0.04 h. In data set [3], the “Δ T3-T0, change” value came to 0.13 ± 0.21 ng/ml·mg and the “Pharmacokinetic phase at the post-dose fetal assessment” value is reported as “early elimination phase”.
With `CN[C@H]1CC[C@@H](c2ccc(Cl)c(Cl)c2)c2ccccc21` [Sertraline], in data set [1], the AUC(0-t) was found to be 728 ± 256 ng·h/mL, the maximum concentration (Cmax) was 197 ± 105 ng/mL and the Tpeak was determined as 5.3 ± 0.18 h. Besides, in data set [3], the “Δ T3-T0, change” value worked out at 0.71 ± 0.53 ng/ml·mg and the “Pharmacokinetic phase at the post-dose fetal assessment” value was “early elimination phase”.
Regarding `COc1ccc(C(CN(C)C)C2(O)CCCCC2)cc1` (stereo not shown) [Venlafaxine], in data set [1], the AUC(0-t) stood at 621 ± 314 ng·h/mL, the highest level (Cmax) was 163 ± 74 ng/mL and the Tpeak was 5.7 ± 0.30 h. Besides, in data set [3], the “Pharmacokinetic phase … (T4)” value is reported as “still in the absorption phase” and the “Δ T3-T0, change” value is 0.43 ± 0.13 ng/ml·mg.
Turning to `CN1CCC[C@H]1c1cccnc1` [nicotine], in the data set on fetal HR, the “Effect on fetal HR variability” value is “decreased”.
